# From PMC8188212, “Multi‐Arm PEG/Peptidomimetic Conjugate Inhibitors of DR6/APP Interaction Block Hematogenous Tumor Cell Extravasation” (Advanced Science, 2021)
# “Also recorded” adds a separate entry of the source. Square brackets hold non-standard residues; d marks the D form. Side chains are listed from the residue outwards. Ends that are not written are not given here. maleimide = maleimide: 4-arm PEG5k maleimide reacting with the C-terminal Cys thiol
# Tests used:
# [1] = test system: HUVECs; assay: Co-culture of TCs and HUVECs, TC-induced HUVECs necroptosis; type: cell-based, human; conditions: co-culture with GFP-B16F10, GFP-SGC-996, GFP-LLC1 for 24 h; peptides 1 × 10^–6 M; Hoechst 33342/EthD-III staining; n = 3
# Experimental: For co‐culture experiment, HUVECs (1 × 10^5) were cultured for 24 h in six‐well plates and 5 × 10^4 GFP‐expressing TCs (GFP‐B16F10, GFP‐SGC‐996, and GFP‐LLC1) were added alone or in the presence of the indicated substances onto the HUVECs monolayer and cultured for 24 h: peptides (1 × 10^–6 M), Nec‐1 (30 × 10^–6 M), and zVAD (100 × 10^–6 M). Then, cells were stained with Hoechst 33342 and EthD‐III, and observed by fluorescence microscope. Cell number was determined by counting Hoechst‐33342‐positive cells, and cell death was determined by counting EthD‐III‐positive nuclei.^[ ^9 ^]
# [2] = Peptides stability in 25% rat serum; type: in vitro ADME; conditions: FITC-labeled peptides, 25% fresh rat serum, 37 °C, 0, 4, 8, 24, 48, 96 h; acetonitrile/0.1% TFA precipitation; microplate reader; n = 3
# Experimental: FITC‐labeled peptides were added into 25% rat serum and incubated at 37 °C. After incubation at 0, 4, 8, 24, 48, 96 h, 100 µL solution was collected and acetonitrile (containing 0.1% TFA) was added to precipitate the protein in the serum. The serum samples were incubated at 4 °C for 20 min and then centrifuged at 12 000 rpm for 10 min. A total of 20 µL supernatant was measured by a microplate reader.
substance,measurement,setting,value
PEG-tAHP-DRI: tetra-(D-retro-inverso isomer of AHP-12) substitued 4-arm PEG5k ([dP][dT][dT][dA][dD][dI][dT]C([maleimide-4‑arm PEG5k]); also: four peptides on one 4-arm PEG5k),inhibition of TCs-induced HUVECs necroptosis,[1],strongest potent inhibitory effect on HUVECs necroptosis; also recorded: much less amount of necroptotic HUVECs
same,degradation in 25% rat serum (proteolytic stability),[2],obviously enhanced proteolytic resistance
